{
  "source": "ChEMBL document CHEMBL4373690",
  "about": "“Photoactivatable Prolyl Hydroxylase 2 Inhibitors for Stabilizing the Hypoxia-Inducible Factor with Light” (J Med Chem, 2019)",
  "key": {"[1]": {"molecular_target": "Egl nine homolog 1 (Homo sapiens) (UniProt Q9GZT9)", "sequence (Q9GZT9 2-426 limits assumed)": "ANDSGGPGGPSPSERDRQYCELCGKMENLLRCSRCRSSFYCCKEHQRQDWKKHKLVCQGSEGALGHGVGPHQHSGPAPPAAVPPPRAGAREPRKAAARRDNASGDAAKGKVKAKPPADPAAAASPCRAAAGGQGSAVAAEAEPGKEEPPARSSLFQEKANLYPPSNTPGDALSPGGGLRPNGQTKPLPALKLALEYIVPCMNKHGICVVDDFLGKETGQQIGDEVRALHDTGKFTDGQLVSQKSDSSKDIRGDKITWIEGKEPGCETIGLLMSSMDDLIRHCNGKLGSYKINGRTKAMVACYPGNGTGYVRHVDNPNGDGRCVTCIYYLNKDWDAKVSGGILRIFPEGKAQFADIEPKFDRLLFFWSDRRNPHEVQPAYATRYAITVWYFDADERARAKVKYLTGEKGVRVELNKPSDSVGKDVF", "assay": "Photoactivated inhibition of PHD2 in HEK293 cells harboring firefly luciferase gene and renilla luciferase gene assessed as stabilization of HIF-alpha at 100 uM using […] under light irradiation for 1 to 30 mins and measured after 24 hrs by chemiluminescence assay", "type": "cell-based"}, "[2]": {"molecular_target": "Egl nine homolog 1 (Homo sapiens) (UniProt Q9GZT9)", "assay": "Photoactivated inhibition of PHD2 in human Hep3B cells assessed as stabilization of HIFalpha by measuring upregulation of EPO gene expression at 50 uM in presence of light irradiation for >20 mins by qRT-PCR analysis", "type": "cell-based"}, "[3]": {"tested_on": "Hep 3B2", "assay": "Cytotoxicity against human Hep3B cells at 100 uM after 72 hrs by MTT assay", "type": "cell-based", "details": "hep 3b2, 72 h"}, "[4]": {"assay": "Drug metabolism in pH 7.4 PBS assessed as light-mediated formation of 7-(diethylamino)-4-(hydroxymethyl)-2H-chromen-2-one at 50 uM followed by laser irradiation by HPLC analysis"}, "[5]": {"tested_on": "HUVEC", "assay": "Cytotoxicity against HUVEC cells at 100 uM after 72 hrs by MTT assay", "type": "cell-based", "details": "human"}, "[6]": {"molecular_target": "Egl nine homolog 1 (Homo sapiens) (UniProt Q9GZT9)", "assay": "Photoactivated inhibition of PHD2 in human Hep3B cells assessed as increase in HIF-1alpha level in nucleus in presence of light irradiation for 20 mins measured after 10 hrs by Western blot analysis", "type": "cell-based"}, "[7]": {"assay": "Drug metabolism in pH 7.4 PBS assessed as light-mediated formation of N-(5-(1-(2-(4-chlorophenoxy)ethyl)-1H-1,2,3-triazol-4-yl)-3-hydroxypicolinoyl)glycine at 50 uM followed by laser irradiation by UV-Visible spectroscopy"}, "[8]": {"assay": "Drug metabolism in pH 7.4 PBS assessed as light-mediated formation of N-(5-(1-(2-(4-chlorophenoxy)ethyl)-1H-1,2,3-triazol-4-yl)-3-hydroxypicolinoyl)glycine at 50 uM followed by laser irradiation for 30 secs to 20 mins by UV-Visible spectroscopy"}, "[9]": {"assay": "Drug metabolism in pH 7.4 PBS assessed as light-mediated formation of N-(5-(1-(2-(4-chlorophenoxy)ethyl)-1H-1,2,3-triazol-4-yl)-3-hydroxypicolinoyl)glycine at 50 uM followed by laser irradiation for 2 mins by HPLC analysis"}, "[10]": {"assay": "Drug metabolism in pH 7.4 PBS assessed as light-mediated formation of N-(5-(1-(2-(4-chlorophenoxy)ethyl)-1H-1,2,3-triazol-4-yl)-3-hydroxypicolinoyl)glycine at 50 uM followed by laser irradiation for 5 mins by HPLC analysis"}, "[11]": {"molecular_target": "Egl nine homolog 1 (Homo sapiens) (UniProt Q9GZT9)", "assay": "Photoactivated inhibition of PHD2 in human Hep3B cells assessed as increase in HIF-1alpha level in presence of light irradiation for 1 to 20 mins measured after 10 hrs by Western blot analysis", "type": "cell-based"}, "[12]": {"molecular_target": "Egl nine homolog 1 (Homo sapiens) (UniProt Q9GZT9)", "assay": "Photoactivated inhibition of PHD2 in human Hep3B cells assessed as increase in HIF-2alpha level in nucleus in presence of light irradiation for 20 mins measured after 10 hrs by Western blot analysis", "type": "cell-based"}, "[13]": {"molecular_target": "Egl nine homolog 1 (Homo sapiens) (UniProt Q9GZT9)", "assay": "Photoactivated inhibition of PHD2 (181 to 426 residues) (unknown origin) using FITC-HIF1alpha (556 to 574 residues) as substrate incubated for 60 mins using laser irradiated compound at 405 nm light for 30 secs to 30 mins by fluorescence polarization assay"}, "[14]": {"assay": "Drug metabolism in pH 7.4 PBS assessed as light-mediated formation of N-(5-(1-(2-(4-chlorophenoxy)ethyl)-1H-1,2,3-triazol-4-yl)-3-hydroxypicolinoyl)glycine at 50 uM followed by laser irradiation for 20 mins by HPLC analysis"}, "[15]": {"assay": "Chemical stability in pH 7.4 PBS buffer at 50 uM measured over 24 hrs by HPLC analysis", "type": "physicochemical", "details": "pH 7.4, 24 h"}, "[16]": {"assay": "Drug metabolism in pH 7.4 PBS assessed as light-mediated formation of 7-(diethylamino)-4-(hydroxymethyl)-2H-chromen-2-one at 50 uM followed by laser irradiation by UV-Visible spectroscopy"}, "[17]": {"molecular_target": "Egl nine homolog 1 (Homo sapiens) (UniProt Q9GZT9)", "assay": "Photoactivated inhibition of PHD2 in human Hep3B cells assessed as stabilization of HIFalpha by measuring upregulation of EPO gene expression at 50 uM in presence of light irradiation for 1 to 30 mins by qRT-PCR analysis", "type": "cell-based"}, "[18]": {"tested_on": "HEK293", "assay": "Cytotoxicity against HEK293 cells at 100 uM after 72 hrs by MTT assay", "type": "cell-based", "details": "human, hek293, 72 h"}, "[19]": {"assay": "Drug metabolism in pH 7.4 PBS assessed as light-mediated formation of N-(5-(1-(2-(4-chlorophenoxy)ethyl)-1H-1,2,3-triazol-4-yl)-3-hydroxypicolinoyl)glycine at 50 uM followed by laser irradiation by HPLC analysis"}, "[20]": {"assay": "Drug metabolism in pH 7.4 PBS assessed as light-mediated formation of N-(5-(1-(2-(4-chlorophenoxy)ethyl)-1H-1,2,3-triazol-4-yl)-3-hydroxypicolinoyl)glycine at 50 uM followed by laser irradiation for 15 mins by HPLC analysis"}, "[21]": {"assay": "Stability in human plasma assessed as compound remaining at […] measured at 8 hrs by HPLC analysis", "type": "ADME, cell-free", "details": "read-out: Stability"}, "[22]": {"molecular_target": "Egl nine homolog 1 (Homo sapiens) (UniProt Q9GZT9)", "assay": "Photoactivated inhibition of PHD2 (181 to 426 residues) (unknown origin) at 1.23 uM using FITC-HIF1alpha (556 to 574 residues) as substrate incubated for 60 mins using laser irradiated compound at 405 nm light for >20 mins by fluorescence polarization assay"}, "[23]": {"molecular_target": "Egl nine homolog 1 (Homo sapiens) (UniProt Q9GZT9)", "assay": "Photoactivated inhibition of PHD2 (181 to 426 residues) (unknown origin) at 1.23 uM using FITC-HIF1alpha (556 to 574 residues) as substrate incubated for 60 mins using laser irradiated compound at 405 nm light for 20 mins by fluorescence polarization assay relative to control"}, "[24]": {"tested_on": "L02", "assay": "Cytotoxicity against human L02 cells at 100 uM after 72 hrs by MTT assay", "type": "cell-based", "details": "l02, 72 h"}, "[25]": {"assay": "Drug metabolism in pH 7.4 PBS assessed as light-mediated formation of N-(5-(1-(2-(4-chlorophenoxy)ethyl)-1H-1,2,3-triazol-4-yl)-3-hydroxypicolinoyl)glycine at 50 uM followed by laser irradiation for 30 secs by HPLC analysis"}, "[26]": {"molecular_target": "Egl nine homolog 1 (Homo sapiens) (UniProt Q9GZT9)", "assay": "Photoactivated inhibition of PHD2 in HEK293 cells harboring firefly luciferase gene and renilla luciferase gene assessed as spatiotemporal dependent accumulation of hypoxia response element level at 100 uM using […] under laser light irradiation after 24 hrs by chemiluminescence assay", "type": "cell-based"}, "[27]": {"molecular_target": "Egl nine homolog 1 (Homo sapiens) (UniProt Q9GZT9)", "assay": "Photoactivated inhibition of PHD2 in human Hep3B cells assessed as increase in HIF-2alpha level in presence of light irradiation for 1 to 20 mins measured after 10 hrs by Western blot analysis", "type": "cell-based"}, "[28]": {"assay": "Drug metabolism in pH 7.4 PBS assessed as light-mediated formation of N-(5-(1-(2-(4-chlorophenoxy)ethyl)-1H-1,2,3-triazol-4-yl)-3-hydroxypicolinoyl)glycine at 50 uM followed by laser irradiation for 9 mins by HPLC analysis"}, "[29]": {"assay": "Stability in rat plasma assessed as compound remaining at […] measured at 8 hrs by HPLC analysis", "type": "ADME, cell-free", "details": "read-out: Stability"}, "[30]": {"assay": "Drug metabolism in pH 7.4 PBS assessed as light-mediated formation of N-(5-(1-(2-(4-chlorophenoxy)ethyl)-1H-1,2,3-triazol-4-yl)-3-hydroxypicolinoyl)glycine at 50 uM followed by laser irradiation for 120 mins by HPLC analysis"}, "[31]": {"molecular_target": "Egl nine homolog 1 (Homo sapiens) (UniProt Q9GZT9)", "assay": "Photoactivated inhibition of PHD2 (181 to 426 residues) (unknown origin) at 1.23 uM using FITC-HIF1alpha (556 to 574 residues) as substrate incubated for 60 mins using laser irradiated compound at 405 nm light by fluorescence polarization assay"}},
  "note": "The source made the active and inactive calls. No cut-off for these calls is given here.",
  "data": [
    {"smiles": "CCN(CC)c1ccc2c(COC(=O)CNC(=O)c3ncc(-c4cn(CCOc5ccc(Cl)cc5)nn4)cc3O)cc(=O)oc2c1", "values": [
      {"measurement": "inhibition", "setting": "[1]", "value": "Active"},
      {"measurement": "inhibition", "setting": "[2]", "value": "Active"},
      {"measurement": "Activity", "setting": "[3]", "value": "Non-Toxic"},
      {"measurement": "Drug metabolism", "setting": "[4]", "value": "Metabolite detected"},
      {"measurement": "Activity", "setting": "[5]", "value": "Non-Toxic"},
      {"measurement": "inhibition", "setting": "[6]", "value": "Active"},
      {"measurement": "Drug metabolism", "setting": "[7]", "value": "Metabolite detected"},
      {"measurement": "Drug metabolism", "setting": "[8]", "value": "Metabolite detected"},
      {"measurement": "Drug metabolism", "setting": "[9]", "value": 16, "unit": "%"},
      {"measurement": "Drug metabolism", "setting": "[10]", "value": 49, "unit": "%"},
      {"measurement": "inhibition", "setting": "[11]", "value": "Active"},
      {"measurement": "inhibition", "setting": "[12]", "value": "Active"},
      {"measurement": "inhibition", "setting": "[13]", "value": "Active"},
      {"measurement": "Drug metabolism", "setting": "[14]", "value": 100, "unit": "%"},
      {"measurement": "Stability", "setting": "[15]", "value": "Stable"},
      {"measurement": "Drug metabolism", "setting": "[16]", "value": "Metabolite detected"},
      {"measurement": "inhibition", "setting": "[17]", "value": "Active"},
      {"measurement": "Activity", "setting": "[18]", "value": "Non-Toxic"},
      {"measurement": "Drug metabolism", "setting": "[19]", "value": "Metabolite detected"},
      {"measurement": "Drug metabolism", "setting": "[20]", "value": 82, "unit": "%"},
      {"measurement": "remaining at 8 h", "setting": "[21]", "value": "> 90", "unit": "%"},
      {"measurement": "inhibition", "setting": "[22]", "value": "Active"},
      {"measurement": "inhibition", "setting": "[23]", "value": 95.2, "unit": "%"},
      {"measurement": "Activity", "setting": "[24]", "value": "Non-Toxic"},
      {"measurement": "Drug metabolism", "setting": "[25]", "value": 5, "unit": "%"},
      {"measurement": "inhibition", "setting": "[26]", "value": "Active"},
      {"measurement": "inhibition", "setting": "[27]", "value": "Active"},
      {"measurement": "Drug metabolism", "setting": "[28]", "value": 68, "unit": "%"},
      {"measurement": "remaining at 8 h", "setting": "[29]", "value": "> 90", "unit": "%"}
    ]},
    {"smiles": "O=C(O)CNC(=O)c1ncc(-c2cn(CCOc3ccc(Cl)cc3)nn2)cc1O", "values": [
      {"measurement": "Activity", "setting": "[3]", "value": "Non-Toxic"},
      {"measurement": "Activity", "setting": "[5]", "value": "Non-Toxic"},
      {"measurement": "Activity", "setting": "[18]", "value": "Non-Toxic"},
      {"measurement": "Activity", "setting": "[24]", "value": "Non-Toxic"}
    ]},
    {"smiles": "CCN(CC)c1ccc2c(COc3cc(-c4cn(CCOc5ccc(Cl)cc5)nn4)cnc3C(=O)NCC(=O)O)cc(=O)oc2c1", "values": [
      {"measurement": "Drug metabolism", "setting": "[30]", "value": "Metabolite not detected"},
      {"measurement": "inhibition", "setting": "[31]", "value": "inactive"}
    ]}
  ]
}
